Data: doi:10.1101/2021.09.30.462449v1 (biorxiv, 2021)

Key:
LIMK2 = LIMK2 (Homo sapiens, UniProt P53671); assay: biochemical; conditions: read-out: % inhibition mean (Lanthascreen)
MAP2K2 (MEK2) = MAP2K2 (MEK2) (Homo sapiens, UniProt P36507); assay: biochemical; conditions: read-out: % inhibition mean (Lanthascreen)
ERN1 = ERN1 (Homo sapiens, UniProt O75460); assay: biochemical; conditions: read-out: % inhibition mean (Lanthascreen)
STK32C (YANK3) = STK32C (YANK3) (Homo sapiens, UniProt Q86UX6); assay: biochemical; conditions: read-out: % inhibition mean (Lanthascreen)
NUAK2 = NUAK2 (Homo sapiens, UniProt Q9H093); assay: biochemical; conditions: read-out: % inhibition mean (Lanthascreen)
EIF2AK2 (PKR) = EIF2AK2 (PKR) (Homo sapiens, UniProt P19525); assay: biochemical; conditions: read-out: % inhibition mean (Lanthascreen)
AMPK (A1/B2/G1) = AMPK (A1/B2/G1) (Homo sapiens, UniProt Q13131); assay: biochemical; conditions: read-out: % inhibition mean (Lanthascreen)
MKNK2 (MNK2) = MKNK2 (MNK2) (Homo sapiens, UniProt Q9HBH9); assay: biochemical; conditions: read-out: % inhibition mean (Lanthascreen)
DDR1 = DDR1 (Homo sapiens, UniProt Q08345); assay: biochemical; conditions: read-out: % inhibition mean (Lanthascreen)
PLK4 = PLK4 (Homo sapiens, UniProt O00444); assay: biochemical; conditions: read-out: % inhibition mean (Lanthascreen)
BMPR1A (ALK3) = BMPR1A (ALK3) (Homo sapiens, UniProt P36894); assay: biochemical; conditions: read-out: % inhibition mean (Lanthascreen)
MELK = MELK (Homo sapiens, UniProt Q14680); assay: ThermoFisher kinase profiling; format: biochemical; conditions: read-out: % inhibition at 1 μM
CDK9/cyclin T1 = CDK9/cyclin T1 (Homo sapiens, UniProt P50750); assay: biochemical; conditions: read-out: % inhibition mean (Adapta)
PIK3C2A (PI3K-C2 alpha) = PIK3C2A (PI3K-C2 alpha) (Homo sapiens, UniProt O00443); assay: biochemical; conditions: read-out: % inhibition mean (Adapta)
LRRK2 = LRRK2 (Homo sapiens, UniProt Q5S007); assay: biochemical; conditions: read-out: % inhibition mean (Adapta)
PIK3C2B (PI3K-C2 beta) = PIK3C2B (PI3K-C2 beta) (Homo sapiens, UniProt O00750); assay: biochemical; conditions: read-out: % inhibition mean (Adapta)
PIK3C2G (PI3K-C2 gamma) = PIK3C2G (PI3K-C2 gamma) (Homo sapiens, UniProt O75747); assay: biochemical; conditions: read-out: % inhibition mean (Adapta)
SPHK1 = SPHK1 (Homo sapiens, UniProt Q9NYA1); assay: biochemical; conditions: read-out: % inhibition mean (Adapta)
PIK3C3 (hVPS34) = PIK3C3 (hVPS34) (Homo sapiens, UniProt Q8NEB9); assay: biochemical; conditions: read-out: % inhibition mean (Adapta)
[1] = biological target: PIK3CA/PIK3R1 (p110 alpha/p85 alpha) (Homo sapiens, UniProt P42336); assay: biochemical; conditions: read-out: % inhibition mean (Adapta)
LRRK2 R1441C = LRRK2 R1441C (Homo sapiens, UniProt Q5S007, R1441C); assay: biochemical; conditions: read-out: % inhibition mean (Adapta)
PIP5K1A = PIP5K1A (Homo sapiens, UniProt Q99755); assay: biochemical; conditions: read-out: % inhibition mean (Adapta)
SPHK2 = SPHK2 (Homo sapiens, UniProt Q9NRA0); assay: biochemical; conditions: read-out: % inhibition mean (Adapta)
CDK4/cyclin D3 = CDK4/cyclin D3 (Homo sapiens, UniProt P11802); assay: biochemical; conditions: read-out: % inhibition mean (Adapta)
NUAK1 (ARK5) = NUAK1 (ARK5) (Homo sapiens, UniProt O60285); assay: biochemical; conditions: read-out: % inhibition mean (Adapta)
CDK6/cyclin D1 = CDK6/cyclin D1 (Homo sapiens, UniProt Q00534); assay: biochemical; conditions: read-out: % inhibition mean (Adapta)
PIP5K1C = PIP5K1C (Homo sapiens, UniProt O60331); assay: biochemical; conditions: read-out: % inhibition mean (Adapta)
PI4KA (PI4K alpha) = PI4KA (PI4K alpha) (Homo sapiens, UniProt P42356); assay: biochemical; conditions: read-out: % inhibition mean (Adapta)

Chain of MELK (Q14680 whole entry): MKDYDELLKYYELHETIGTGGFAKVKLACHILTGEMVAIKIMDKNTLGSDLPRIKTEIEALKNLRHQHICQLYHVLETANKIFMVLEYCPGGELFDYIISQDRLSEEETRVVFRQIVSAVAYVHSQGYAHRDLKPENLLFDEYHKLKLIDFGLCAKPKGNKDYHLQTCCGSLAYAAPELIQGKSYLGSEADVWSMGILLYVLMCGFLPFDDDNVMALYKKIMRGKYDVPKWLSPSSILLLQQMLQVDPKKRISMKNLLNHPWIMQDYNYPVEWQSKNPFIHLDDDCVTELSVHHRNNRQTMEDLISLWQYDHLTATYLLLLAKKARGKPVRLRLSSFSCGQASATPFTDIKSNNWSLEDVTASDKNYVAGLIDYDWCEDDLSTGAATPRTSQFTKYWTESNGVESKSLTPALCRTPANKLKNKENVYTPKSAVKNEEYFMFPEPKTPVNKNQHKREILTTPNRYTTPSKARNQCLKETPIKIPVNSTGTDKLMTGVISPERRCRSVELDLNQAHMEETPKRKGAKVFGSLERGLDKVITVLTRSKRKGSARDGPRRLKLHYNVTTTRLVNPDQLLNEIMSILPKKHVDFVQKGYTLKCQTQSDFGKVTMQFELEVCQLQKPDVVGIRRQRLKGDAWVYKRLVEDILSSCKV
Chain of AMPK (A1/B2/G1) (Q13131 whole entry): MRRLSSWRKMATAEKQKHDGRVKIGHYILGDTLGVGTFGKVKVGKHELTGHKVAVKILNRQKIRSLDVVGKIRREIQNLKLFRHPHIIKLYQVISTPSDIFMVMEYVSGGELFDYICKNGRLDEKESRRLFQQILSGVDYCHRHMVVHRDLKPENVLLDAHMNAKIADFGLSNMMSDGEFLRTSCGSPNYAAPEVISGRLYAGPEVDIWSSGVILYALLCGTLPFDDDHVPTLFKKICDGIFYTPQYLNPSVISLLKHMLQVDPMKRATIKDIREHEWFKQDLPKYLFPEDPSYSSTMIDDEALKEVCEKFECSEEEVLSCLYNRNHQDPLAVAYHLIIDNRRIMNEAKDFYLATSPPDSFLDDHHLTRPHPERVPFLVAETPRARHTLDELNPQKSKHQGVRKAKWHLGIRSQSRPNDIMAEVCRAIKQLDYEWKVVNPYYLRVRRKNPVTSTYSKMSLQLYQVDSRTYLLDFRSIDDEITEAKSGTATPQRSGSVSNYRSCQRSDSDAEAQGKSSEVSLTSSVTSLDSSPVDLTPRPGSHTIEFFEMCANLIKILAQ
Chain of AMPK (A1/B2/G1) (O43741 whole entry partner): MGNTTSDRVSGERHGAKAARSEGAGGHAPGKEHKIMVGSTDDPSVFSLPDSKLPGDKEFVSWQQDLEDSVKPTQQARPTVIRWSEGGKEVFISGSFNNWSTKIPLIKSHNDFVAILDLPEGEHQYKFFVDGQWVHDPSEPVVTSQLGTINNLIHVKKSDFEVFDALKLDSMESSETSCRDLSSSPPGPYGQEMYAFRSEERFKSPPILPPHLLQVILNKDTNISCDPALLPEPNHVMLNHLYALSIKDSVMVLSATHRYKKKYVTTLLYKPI
Chain of AMPK (A1/B2/G1) (P54619 whole entry partner): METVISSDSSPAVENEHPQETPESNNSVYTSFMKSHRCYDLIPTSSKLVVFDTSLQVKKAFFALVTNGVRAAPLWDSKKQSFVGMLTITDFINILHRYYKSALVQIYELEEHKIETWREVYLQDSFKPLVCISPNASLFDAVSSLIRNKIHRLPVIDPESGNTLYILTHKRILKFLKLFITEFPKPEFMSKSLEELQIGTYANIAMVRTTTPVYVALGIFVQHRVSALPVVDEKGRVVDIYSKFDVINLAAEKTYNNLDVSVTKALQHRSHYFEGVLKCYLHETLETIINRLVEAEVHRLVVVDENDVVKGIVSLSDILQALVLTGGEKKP
Chain of PLK4 (O00444 whole entry): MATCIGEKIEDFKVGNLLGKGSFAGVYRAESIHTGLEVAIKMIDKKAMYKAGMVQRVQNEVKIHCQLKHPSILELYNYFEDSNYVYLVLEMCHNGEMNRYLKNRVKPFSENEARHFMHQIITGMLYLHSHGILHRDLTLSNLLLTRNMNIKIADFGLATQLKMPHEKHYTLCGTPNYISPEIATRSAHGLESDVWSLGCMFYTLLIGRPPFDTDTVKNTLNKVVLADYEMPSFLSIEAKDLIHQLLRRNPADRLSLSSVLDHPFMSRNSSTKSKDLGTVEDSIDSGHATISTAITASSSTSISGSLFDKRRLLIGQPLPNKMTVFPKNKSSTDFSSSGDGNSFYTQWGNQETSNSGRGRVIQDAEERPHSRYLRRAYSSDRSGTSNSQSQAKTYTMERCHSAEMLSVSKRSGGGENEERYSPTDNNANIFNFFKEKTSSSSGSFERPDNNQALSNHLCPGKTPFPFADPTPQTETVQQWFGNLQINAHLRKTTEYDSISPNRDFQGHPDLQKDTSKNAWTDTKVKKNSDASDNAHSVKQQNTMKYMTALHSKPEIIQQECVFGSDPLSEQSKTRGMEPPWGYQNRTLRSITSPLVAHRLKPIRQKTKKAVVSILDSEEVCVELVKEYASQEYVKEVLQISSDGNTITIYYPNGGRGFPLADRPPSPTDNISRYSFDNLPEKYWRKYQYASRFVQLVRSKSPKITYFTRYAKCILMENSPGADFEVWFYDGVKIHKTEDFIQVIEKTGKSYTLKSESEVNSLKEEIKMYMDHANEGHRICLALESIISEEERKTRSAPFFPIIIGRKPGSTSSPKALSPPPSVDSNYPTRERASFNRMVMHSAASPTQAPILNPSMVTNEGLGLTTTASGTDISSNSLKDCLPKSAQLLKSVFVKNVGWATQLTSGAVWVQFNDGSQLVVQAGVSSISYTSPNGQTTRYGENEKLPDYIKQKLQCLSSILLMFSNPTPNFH
Chain of STK32C (YANK3) (Q86UX6 whole entry): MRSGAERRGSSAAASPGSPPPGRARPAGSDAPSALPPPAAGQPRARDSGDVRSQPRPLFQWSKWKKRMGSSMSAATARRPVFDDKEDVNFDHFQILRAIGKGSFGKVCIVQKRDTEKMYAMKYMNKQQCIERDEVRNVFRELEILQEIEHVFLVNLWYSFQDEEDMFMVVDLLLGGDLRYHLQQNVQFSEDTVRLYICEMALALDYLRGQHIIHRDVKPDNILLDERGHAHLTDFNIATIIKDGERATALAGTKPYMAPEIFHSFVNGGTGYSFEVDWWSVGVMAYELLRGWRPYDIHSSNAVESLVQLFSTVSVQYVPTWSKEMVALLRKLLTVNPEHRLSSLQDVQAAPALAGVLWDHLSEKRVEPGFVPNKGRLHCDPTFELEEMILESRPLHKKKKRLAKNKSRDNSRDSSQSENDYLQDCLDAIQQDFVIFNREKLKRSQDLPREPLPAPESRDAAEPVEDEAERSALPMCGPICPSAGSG
Chain of MKNK2 (MNK2) (Q9HBH9 whole entry): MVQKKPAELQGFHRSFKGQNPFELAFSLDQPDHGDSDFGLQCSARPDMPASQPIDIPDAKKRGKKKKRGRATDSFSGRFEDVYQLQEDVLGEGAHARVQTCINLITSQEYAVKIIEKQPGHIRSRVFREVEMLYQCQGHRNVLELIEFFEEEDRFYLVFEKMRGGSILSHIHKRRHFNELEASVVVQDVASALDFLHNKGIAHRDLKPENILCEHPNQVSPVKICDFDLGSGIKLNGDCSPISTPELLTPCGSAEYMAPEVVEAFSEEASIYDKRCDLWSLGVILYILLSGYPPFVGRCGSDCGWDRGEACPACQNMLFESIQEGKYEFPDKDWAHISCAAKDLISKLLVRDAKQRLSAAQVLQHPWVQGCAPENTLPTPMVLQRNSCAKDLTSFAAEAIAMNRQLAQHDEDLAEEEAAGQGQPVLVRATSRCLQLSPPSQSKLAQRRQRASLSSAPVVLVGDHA
Chain of EIF2AK2 (PKR) (P19525 whole entry): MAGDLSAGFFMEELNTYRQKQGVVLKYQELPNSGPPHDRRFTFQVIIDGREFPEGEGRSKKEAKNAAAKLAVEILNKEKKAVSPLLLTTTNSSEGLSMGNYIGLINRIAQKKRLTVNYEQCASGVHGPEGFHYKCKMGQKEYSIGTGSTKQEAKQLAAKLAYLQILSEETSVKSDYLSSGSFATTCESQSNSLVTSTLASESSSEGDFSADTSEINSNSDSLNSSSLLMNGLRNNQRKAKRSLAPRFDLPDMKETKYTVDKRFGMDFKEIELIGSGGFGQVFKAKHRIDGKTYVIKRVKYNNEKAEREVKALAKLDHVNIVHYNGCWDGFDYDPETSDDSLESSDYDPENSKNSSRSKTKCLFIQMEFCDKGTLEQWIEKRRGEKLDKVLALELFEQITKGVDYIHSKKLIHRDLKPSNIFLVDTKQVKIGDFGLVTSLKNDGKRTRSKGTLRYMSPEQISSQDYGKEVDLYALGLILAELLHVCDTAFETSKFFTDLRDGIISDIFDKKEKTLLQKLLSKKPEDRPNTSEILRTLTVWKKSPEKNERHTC
Chain of LIMK2 (P53671 whole entry): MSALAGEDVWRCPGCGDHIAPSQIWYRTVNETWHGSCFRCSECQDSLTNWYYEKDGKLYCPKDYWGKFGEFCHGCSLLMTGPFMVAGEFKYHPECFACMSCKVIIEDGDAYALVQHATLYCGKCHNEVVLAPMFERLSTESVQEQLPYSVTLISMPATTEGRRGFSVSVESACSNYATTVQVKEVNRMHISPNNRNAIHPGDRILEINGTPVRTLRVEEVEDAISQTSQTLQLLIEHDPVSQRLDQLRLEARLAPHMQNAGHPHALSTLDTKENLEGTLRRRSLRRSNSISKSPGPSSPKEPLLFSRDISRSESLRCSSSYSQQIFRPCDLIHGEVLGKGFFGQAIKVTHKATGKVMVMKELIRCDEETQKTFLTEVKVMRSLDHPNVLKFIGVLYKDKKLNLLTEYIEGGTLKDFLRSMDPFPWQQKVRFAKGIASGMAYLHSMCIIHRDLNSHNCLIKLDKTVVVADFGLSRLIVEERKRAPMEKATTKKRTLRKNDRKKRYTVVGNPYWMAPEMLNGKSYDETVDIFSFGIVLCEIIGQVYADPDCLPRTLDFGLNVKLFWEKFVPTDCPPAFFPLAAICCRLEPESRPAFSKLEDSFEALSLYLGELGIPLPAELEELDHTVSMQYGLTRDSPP

COc1ccc2nc3cc(Cl)ccc3c(Nc3cc(CN4CCCC4)c(O)c(CN4CCCC4)c3)c2n1 [Pyronaridine, 4-[(7-Chloro-2-methoxybenzo[b][1,5]naphthyridin-10-yl)amino]-2,6-bis(1-pyrrolidinylmethyl)phenol phosphate (1:4)]
inhibition at 1 µM (LIMK2): -1% | inhibition at 1 µM (MAP2K2 (MEK2)): -3% | inhibition at 1 µM (ERN1): 6% | inhibition at 1 µM (STK32C (YANK3)): 1% | inhibition at 1 µM (NUAK2): 2% | inhibition at 1 µM (EIF2AK2 (PKR)): 4% | inhibition at 1 µM (AMPK (A1/B2/G1)): -2% | inhibition at 1 µM (MKNK2 (MNK2)): 2% | inhibition at 1 µM (DDR1): -2% | inhibition at 1 µM (PLK4): 6% | inhibition at 1 µM (BMPR1A (ALK3)): 10% | inhibition at 1 µM (MELK): 31% | inhibition at 1 µM (CDK9/cyclin T1): 5% | inhibition at 1 µM (PIK3C2A (PI3K-C2 alpha)): -1% | inhibition at 1 µM (LRRK2): -2% | inhibition at 1 µM (PIK3C2B (PI3K-C2 beta)): -5% | inhibition at 1 µM (PIK3C2G (PI3K-C2 gamma)): 3% | inhibition at 1 µM (SPHK1): 10% | inhibition at 1 µM (PIK3C3 (hVPS34)): -4% | inhibition at 1 µM [1]: 7% | inhibition at 1 µM (LRRK2 R1441C): -7% | inhibition at 1 µM (PIP5K1A): -6% | inhibition at 1 µM (SPHK2): -5% | inhibition at 1 µM (CDK4/cyclin D3): -6% | inhibition at 1 µM (NUAK1 (ARK5)): 11% | inhibition at 1 µM (CDK6/cyclin D1): 1% | inhibition at 1 µM (PIP5K1C): -3% | inhibition at 1 µM (PI4KA (PI4K alpha)): 0%
